B1: N-acetylgalactosamine-6-sulfatase (protein, listed as Homo sapiens)
chain: APQPPNILLLLMDDMGWGDLGVYGEPSRETPNLDRMAAEGLLFPNFYSANPLCSPSRAALLTGRLPIRNGFYTTNAHARNAYTPQEIVGGIPDSEQLLPELLKKAGYVSKIVGKWHLGHRPQFHPLKHGFDEWFGSPNCHFGPYDNKARPNIPVYRDWEMVGRYYEEFPINLKTGEANLTQIYLQEALDFIKRQARHHPFFLYWAVDATHAPVYASKPFLGTSQRGRYGDAVREIDDSIGKILELLQDLHVADNTFVFFTSDNGAALISAPEQGGSNGPFLCGKQTTFEGGMREPALAWWPGHVTAGQVSHQLGSIMDLFTTSLALAGLTPPSDRAIDGLNLLPTLLQGRLMDRPIFYYRGDTLMAATLGQHKAHFWTWTNSWENFRQGIDFCPGQNVSGVTTHNLEDHTKLPLIFHLGRDPGERFPLSFASAEYQEALSRITSVVQQHQEALVPAQPQLNVCNWAVMNWAPPGCEKLGKCLTPPESIPKKCLWSH
notes: recombinant human GALNS produced in CHO cells, used for ERT and oral tolerance

Legend:
[1] = tested on: MKC mice; assay: Oral tolerance induction: secreted cytokines after GALNS in vitro stimulation (Examples 15-18); format: in vivo, mouse; conditions: for IFN-γ secretion after oral treatment: oral 50, 100 or 500 μg, GALNS in vitro stimulation
Excerpt: (§1) Control groups (7 and 8) received PBS alone.
Secreted cytokines (IL-4, IL-5, IL-10, IL-13 and IFN-γ) in the collected supernatants were detected by a bead immunoassay kit which allow the measurement of multiple proteins simultaneously (LUMINEX xMAP Technology, using a Millipore Milliplex™) kit according manufacturer's instructions (FIG. 6).

[2] = tested on: splenocytes; assay: Screening of peptides by splenocytes proliferation, retest in MKC mice (Examples 5-6); format: cell-based, mouse; conditions: MKC mice, 16, 22 and 24 infusions; with higher number of infusions
Description: of body weight through the tail vein. A control group received PBS. […] The suspension was centrifuged at 1,000 rpm during 10 minutes. […] The specificity of cellular response against the peptides or the complete enzyme in the in vitro stimulation was determined by splenocyte proliferation or cytokine secretion in ERT treated mice or PBS injected control mice. […] 3H-Thymidine incorporation was measured by β-Scintillation counter (Trilux Microbeta Counter). Proliferation data are expressed as counts per minute (cpm) values (FIG. 5). (Mirano-Bascos et al. (2010) J Virol. 84(7): p. 3303-11).

[3] = tested on: MKC mice; assay: Oral tolerance protocol followed by ERT, overall outcome; format: in vivo, mouse; conditions: oral administration prior to ERT
Excerpt: as §1

[4] = tested on: MKC mice; assay: Regulatory markers (CTLA-4, TGF-β) mRNA in Peyer patches after induction of tolerance (Example 21); format: in vivo, mouse; conditions: real-time PCR, oral 50, 100 or 500 μg
Excerpt: FIG. 25. Up-regulation of TGF-β expression after induction of tolerance in mice PP. […] Control groups were fed with PBS. […] The fold change in expression was related to the values of non-tolerized group. GAPDH was using as a housekeeping gene for the data normalization.
FIG. 26. Up-regulation of CTLA-4 expression after induction of tolerance in mice PP. […] Control groups were fed with PBS. […] The fold change in expression was related to the values of non-tolerized group. GAPDH was using as a housekeeping gene for the data normalization.
Regulatory Markers Evaluation in Peyer Patches (PP) after Induction of Tolerance. […] Most of the mice presented up-regulation of these regulatory molecules when compare with the non-tolerized group.

[5] = tested on: splenocytes; assay: Secreted cytokines of splenocytes in Morquio A mouse models and WT mice treated by ERT (Examples 10-13); format: cell-based; conditions: for IL-4 secretion / IL-5 secretion / IL-13 secretion: MTol mice
Description: (§2) Morquio A mouse models: a). […] 14(22): p. 3321-35).c). Missense mutation mice (Galnstm (C76S) SLU C2) (Tomatsu et al. (2007) Mol Genet Metab., 91(3): p. 251-8), and wild-type C57BL6 mice were treated by ERT. […] A control group received PBS.
(§3) The suspension was centrifuged at 1,000 rpm during 10 minutes.
(§4) Cytokines were determined in the cell culture supernatants. […] Cells were centrifuged at 1000 rpm during 10 min. Secreted cytokines (IL-4, IL-5, IL-13, and IFN-γ) in the collected supernatants were detected by a bead immunoassay kit which allow the measurement of multiple proteins simultaneously (LUMINEX xMAP Technology, using a Millipore Milliplex™ kit) according to manufacturer's instructions.

[6] = tested on: splenocytes; assay: Splenocyte proliferation after in vitro stimulation with peptides or GALNS (Examples 2, 4); format: cell-based, mouse; conditions: for proliferation of splenocytes relative to age of the animal and length of treatment: MKC mice, weeks of infusion
Description: Mice (MKC) genetically engineered not to express GALNS were used in these examples. […] 200 μl of the emulsion were administered as a subcutaneous injection. […] Control mice (n=2) were immunized with PBS emulsified in CFA and IFA respectively (Chung et al. (2005) J. Leukoc Biol. 77(6):906-13)). […] A control group (n=5) received PBS (Tomatsu et al. (2008) Hum Mol Genet. 15; 17(6):815-24). […]
Ten days after the last immunization or the last infusion, the mice were euthanized and the spleen was aseptically removed. […] The suspension was centrifuged at 1000 rpm […]. The red blood cells were lysed using a hypotonic lysis buffer (Sigma® R7757). […] Cells were pulsed with 1 JpCi of [3H]thymidine for the last 18 h of incubation. [3H]thymidine incorporation was measured by […] (Trilux Microbeta Counter). The Stimulation Index (SI) was calculated as the mean value of the three wells for each condition divided by the mean value of the unstimulated cells (Mirano-Bascos (2010) J Virol. 84(7):3303-11).

[7] = tested on: splenocytes; assay: Secreted cytokine profile of splenocytes, retest in MKC mice (Example 7); format: cell-based, mouse; conditions: for IL-5 secretion, ERT treated vs PBS controls, p or significance / IL-13 secretion, ERT treated vs PBS controls, p or significance / profile of secreted cytokines, ERT treated vs PBS treated mice: MKC mice; for levels of IL-4 secretion among the stimuli / levels of IL-5 secretion among the stimuli: MKC mice treated by ERT; for profile of secreted cytokines, ERT treated vs PBS treated mice: 16 i.v. infusions
Description: The predicted peptides from Example 1 were reevaluated in MKC mice to reaffirm the selection of peptides 4, 8, and 10. […] A control group received PBS. […] The suspension was centrifuged at 1,000 rpm during 10 minutes. […] The specificity of cellular response against the peptides or the complete enzyme in the in vitro stimulation was determined by splenocyte proliferation or cytokine secretion in ERT treated mice or PBS injected control mice.
as §4, with “1,000” for “1000”, “instructions (FIG. 5).” for “instructions.”

[8] = tested on: splenocytes; assay: Splenocytes proliferation in Morquio A mouse models and WT mice treated by ERT (Example 9); format: cell-based
Description: as §2, §3
Thymidine incorporation was measured by β-Scintillation counter (Trilux Microbeta Counter) Mirano-Bascos, et al. (2010) J Virol. 84(7): p. 3303-11).

Molecule	IFN-γ secretion after oral treatment [1]	relationship between number of weekly i.v. infusions and cpm values of splenocytes proliferation [2]	inducing oral tolerance to GALNS [3]	TGF-β expression in Peyer patches vs non-tolerized group [4]	IFN-γ secretion, MKC vs MTol mice treated by ERT, p or significance [5]	IL-4 secretion [5]	IL-5 secretion [5]	IL-13 secretion [5]	proliferation of splenocytes relative to age of the animal and length of treatment [6]	IL-5 secretion, ERT treated vs PBS controls, p or significance [7]	IL-13 secretion, ERT treated vs PBS controls, p or significance [7]	levels of IL-4 secretion among the stimuli [7]	levels of IL-5 secretion among the stimuli [7]	profile of secreted cytokines, ERT treated vs PBS treated mice [7]	splenocytes proliferation, ERT treated vs PBS controls ([8]; C2 mice)	splenocytes proliferation, ERT treated vs PBS controls ([8]; MKC mice)	splenocytes proliferation, ERT treated vs PBS controls ([8]; WT mice)	also measured
QQHQEALVPAQPQLNVTNWA (listed as Homo sapiens) [Peptide I10]	down-regulated	lower levels of proliferation	effective	observed in both groups	0.044	did not present secretion of IL-4	did not present secretion of IL-5	did not show any secretion of IL-13	highest response at 16 weeks	0.0094	0.0002	Higher levels	Higher levels	statistically significant difference	statistically significant difference	statistically significant	statistically significant difference	CTLA-4 expression in Peyer patches vs non-tolerized group [4]: predominantly up-regulated; specific cellular response after splenocytes in vitro stimulation ([5]; mice treated by ERT, compared with GALNS stimulation): very similar to the one observed by in vitro stimulation with GALNS; splenocyte proliferation response ([6]; splenocytes of MKC mice treated by ERT with GALNS, in vitro peptide stimulation): strong response
B1	did not show any modulation	lower levels of proliferation	effective	observed in both groups	not statistically significant	did not present secretion of IL-4	did not present secretion of IL-5	did not show any secretion of IL-13	highest response at 16 weeks	0.0029	0.0152	Higher levels	Higher levels	statistically significant difference	statistically significant difference	statistically significant	statistically significant difference	IL-10 secretion after oral treatment ([1]; mice treated orally): down-regulation of IL-10

From patent US11529397B2, “Method of treating mucopolysaccharidosis type IVA” (Saint Louis University, priority 2018, dated 2022)
